Read-outs that look alike come from different tables or passages of the source. Positions of bridges follow the written chain, without caps; N, C: chain ends. No end group written: not given here.
How the values were obtained:
[1] = tested on: NTHi; assay: ultrastructural analysis (electron microscopy); format: cell-based, nontypeable Haemophilus influenzae
Experimental: (§1) […] The bacterial pellets were left in the fixative at 4° C. for 2 hr, post-fixed in 2% osmium tetroxide, dehydrated in ethanol and embedded in Eponate 12 (Ted Pella, Redding, Calif.). Sections were mounted in coated specimen grids, contrasted with uranyl acetate and lead citrate and examined in a transmission electron microscope (CM120 BioTwin, FEI-Philips, Hillsboro, Oreg.) operating at 80 kV. Images were recorded on photographic film and were subsequently digitized.

[2] = tested on: S. pneumoniae serotype 3; assay: ultrastructural analysis (electron microscopy); format: cell-based, Streptococcus pneumoniae; settings: three-hour treatment
Experimental: (§2) Electron microscopy was performed by treating the bacterial cultures with antimicrobial protein or peptide for 3 hours, mixing with an equal volume of 5% buffered glutaradehyde (pH 7.4) and centrifuging (5000×g, for 20 minutes). The bacterial pellets were left in the fixative at 4° C. for 2 hr, post-fixed in 2% osmium tetroxide, dehydrated in ethanol and embedded in Eponate 12 (Ted Pella, Redding, Calif.). Sections were mounted in coated specimen grids, contrasted with uranyl acetate and lead citrate and examined in a transmission electron microscope (CM120 BioTwin, FEI-Philips, Hillsboro, Oreg.) operating at 80 kV. Images were recorded on photographic film and were subsequently digitized.

[3] = tested on: S. pneumoniae serotype 6B; assay: ultrastructural analysis (electron microscopy); format: cell-based, Streptococcus pneumoniae; settings: 10 μg/ml, three-hour treatment
Experimental: as §2

[4] = tested on: M. catarrhalis strain 035E; format: cell-based, Moraxella catarrhalis; settings: for effect of salt on the growth inhibitory effect against M. catarrhalis: 100 mM NaCl in gel; for Diameter of the inhibition zone, M. catarrhalis: no added NaCl, average of 3 experiments ± SD
Experimental: (§3) The bacteria used in the following examples were cultured as follows: Stocks of NTHi12 and M. catarrhalis […] (generous gift of Dr. Xin-Xing Gu) were maintained at -80° C. For experiments, the bacteria were plated on chocolate agar and incubated overnight at 37° C. in 5% CO2. A single colony was then picked and transferred to 10 ml of brain heart infusion (BHI, Becton Dickinson, Cockeysville, Md.), supplemented with hemin (10 μg/ml, Sigma, St. Louis, Mo.) and NAD (10 μg/ml, Sigma, St. Louis, Mo.), and allowed to grow overnight. In the morning, 1/10 volume of the overnight culture was transferred to fresh medium and incubated for 3-hours. The subculture was then washed twice with 10 mM sodium phosphate and the O.D. at 620 nm was determined. For the S. pneumoniae serotypes 3 and 6B (generous gift of Dr. Xin-Xing Gu), a 50 μl aliquot of the -80° C. stock was thawed on ice, added to 10 ml of Todd-Hewitt broth (THB, Becton Dickinson, Cockeysville, Md.) and cultured overnight. One tenth of the volume of the overnight culture was then transferred to fresh medium and incubated for 3-hours. The subculture was then washed twice with 10 mM sodium phosphate and the O.D. at 620 nm was determined. The radial assay method of […] and coworkers was used, with minor modifications ([…] et al., 1991). The subcultured bacteria (4×10^6 CFU/10 ml underlay gel) were mixed with melted underlay gel at 42° C. (0.1×culture broth-BHI for NTHi and Moraxella and THB for S. pneumoniae-10 mM sodium phosphate, 0.8% low electroendosmosis (EEO)-type agarose) and poured into 8 cm×8 cm square petri plates. The gel was allowed to solidify in the petri plates and wells were punched out with a calibrated 200 μl micropipette tip, cut off at the 50 μl mark (approximately 3 mm). The antimicrobial peptides and proteins were dissolved in 0.01% acetic acid and 4 μl was added to each well. The plates were then incubated for 3 hours at 37° C. in the 5% CO2 incubator. They were next overlaid with the overlay gel (0.5×culture broth, 10 mM sodium phosphate, 0.8% low EEO-type agarose) and covered. The plates were then allowed to incubate overnight at 37° C. in a 5% CO2. The diameter of the zones of inhibition produced by each of the antimicrobial molecules against the OM pathogens (NTHi, M. catarrhalis and S. pneumoniae) was then measured in three separate experiments and the average and standard deviation were calculated. Physiologically, salt concentrations vary depending on the site. However, typically they can be as high as 150 mM. Thus, the salt sensitivity of the antimicrobial molecules was tested. NaCl was added to the gel in Example 2 to obtain a final concentration of 100 mM.

[5] = tested on: NTHi strain12; format: cell-based, nontypeable Haemophilus influenzae; settings: for effect of salt on the growth inhibitory effect against NTHi: 100 mM NaCl in gel
Experimental: as §3

[6] = tested on: non-typeable Haemophilus influenzae (NTHi); format: cell-based; settings: 10 μg/ml
Experimental: The ability of a few of these innate immune mediators: human milk lysozyme (Lz), human β-defensins (HBD) 1 and 2 and human milk lactoferrin (LF) to inhibit the growth of non-typeable Haemophilus influenzae (NTHi) at other concentrations was also investigated using a different type of assay, a colony formation assay. The molecules were tested separately, as well as in combination, and the effect on NTHi growth was determined using a colony formation assay. […] In previous studies, it was shown that the concentration of lysozyme in middle ear effusion can be as high as 3.7 mg/ml and thus the concentrations used in these studies are well within the physiological range. Incubating the bacteria with 10 μg/ml of either human β-defensin 1 or 2 produced an even more pronounced effect, with close to a 95% reduction in the number of colonies. […] For example, the bacteria may be more sensitive to the antimicrobials in a liquid assay, such as the colony forming assay.

[7] = tested on: S. pneumoniae serotype 3; format: cell-based, Streptococcus pneumoniae; settings: for effect of salt on the growth inhibitory effect against S. pneumoniae serotype 3: 100 mM NaCl in gel
Experimental: as §3

[8] = tested on: S. pneumoniae serotype 6B; format: cell-based, Streptococcus pneumoniae; settings: for effect of salt on the growth inhibitory effect against S. pneumoniae serotype 6B: 100 mM NaCl in gel
Experimental: as §3

[9] = tested on: M. catarrhalis; assay: ultrastructural analysis (electron microscopy); format: cell-based, Moraxella catarrhalis
Experimental: as §1

[10] = 4 and 10 μg, equivalent to 1 and 2.5 mg/ml
[11] = 40 μg per well, equivalent to 10 mg/ml

GIGDPVTCLKSGAICHPVFCPRRYKQIGTCGLPGTKCCKKP (disulfide 8-37, 15-30, 20-38) [HBD-2, β-defensin 2]
ultrastructural changes of NTHi ([1]; 10 μg/ml, 3 hours): blebbing of the membranes with extrusion of the cytoplasmic contents into the blebs | ultrastructural changes of NTHi ([1]; 10 μg/ml, 3 hours, listed as human β-defensin 2): Morphological changes were also apparent | ultrastructural changes of S. pneumoniae serotype 3 ([2]; 10 μg/ml): disappearance of the capsule in certain regions and the lysis of the bacteria | ultrastructural changes of S. pneumoniae serotype 6B [3]: damage to the capsule and condensation of the cytoplasmic material | effect of salt on the growth inhibitory effect against M. catarrhalis [4]: did not inhibit the activity | effect on growth of M. catarrhalis [4, 10]: significantly inhibited the growth | effect of salt on the growth inhibitory effect against NTHi [5]: did not inhibit the activity | effect on growth of NTHi [5, 10]: significantly inhibited the growth | reduction in the number of colonies [6]: ~95% | effect of salt on the growth inhibitory effect against S. pneumoniae serotype 3 [7]: blocked the effect | effect on growth of S. pneumoniae serotype 3 [7, 10]: significantly inhibited the growth | effect of salt on the growth inhibitory effect against S. pneumoniae serotype 6B [8]: blocked the effect | effect on growth of S. pneumoniae serotype 6B [8, 10]: significantly inhibited the growth | ultrastructural changes of M. catarrhalis ([9]; 30-minute incubation): substantial damage to the cells

human lysozyme [hLz]
ultrastructural changes of NTHi ([1]; 100 μg/ml, 3 hour): Few completely lysed bacteria were observed | ultrastructural changes of NTHi ([1]; 100 μg/ml, 3 hour, listed as human milk lysozyme): extrusion of the outer membrane could clearly be seen | ultrastructural changes of NTHi ([1]; 1 mg/ml, 3 hour): blebbing of the membranes with extrusion of the cytoplasmic contents into the blebs | ultrastructural changes of NTHi, one hour compared with 3 hours ([1]; one hour treatment): similar | ultrastructural changes of S. pneumoniae serotype 3 ([2]; 1 mg/ml): many fewer bacteria appear to be lysed | Diameter of the inhibition zone, M. catarrhalis ([4]; 40 μg in 4 μl per well): 4 ± 1.7 mm | effect on growth of M. catarrhalis [4, 11]: slight but visible inhibition | effect of salt on the growth inhibitory effect against M. catarrhalis [4]: completely blocked | effect of salt on the growth inhibitory effect against NTHi [5]: completely blocked | effect on growth of NTHi ([5]; dose not given): no effect | effect of salt on the growth inhibitory effect against S. pneumoniae serotype 3 [7]: completely blocked | effect on growth of S. pneumoniae serotype 3 ([7]; dose not given): appeared to enhance the growth | Diameter of the inhibition zone, S. pneumoniae 6B ([8]; 40 μg in 4 μl per well, no added NaCl, average of 3 experiments ± SD): 5 ± 1.7 mm | effect on growth of S. pneumoniae serotype 6B [8, 11]: slight but visible inhibition | effect of salt on the growth inhibitory effect against S. pneumoniae serotype 6B [8]: completely blocked | ultrastructural changes of M. catarrhalis ([9]; 1-minute treatment): formation of blebs

β-defensin 1 (GNFLTGLGHRSDHYNCVSSGGQCLYSACPIFTKIQGTCYRGKAKCCK; not fully specified; cysteine pairing not given here) [HBD-1, human beta defensin 1, cationic antimicrobial peptide produced by epithelial cells]
ultrastructural changes of NTHi ([1]; 10 μg/ml, 3 hours): Morphological changes were also apparent | Diameter of the inhibition zone, M. catarrhalis ([4]; 10 μg in 4 μl per well): 7.7 ± 0.6 mm | effect of salt on the growth inhibitory effect against M. catarrhalis [4]: completely blocked | effect on growth of M. catarrhalis ([4]; high dose, 10 μg, equivalent to 2.5 mg/ml): effective | effect of salt on the growth inhibitory effect against NTHi [5]: completely blocked | reduction in the number of colonies [6]: ~95% | effect of salt on the growth inhibitory effect against S. pneumoniae serotype 3 [7]: completely blocked | effect of salt on the growth inhibitory effect against S. pneumoniae serotype 6B [8]: completely blocked
